Experimental findings from US11401303B2, “Synthetic peptide BRAP and application in preparation of anti-inflammatory drug for COVID-19 thereof” (TAIAN CITY QIHANG BIOTECHNOLOGY CO., priority 2020, dated 2022) are described below.

The assay has as its system LPS-induced acute lung injury. In words: LPS-induced acute lung injury in mice, HE pathological examination of lung tissues. The assay is classed as in vivo, Balb/C mice. The settings on record: LPS 5 mg/kgBW i.p. The procedure:
1. Grade-SPF male Balb/C mice, body weight: 20±2 g, and n=48
3. Grouping and treatment: mice were randomly divided into 8 groups (A-H), 6 pcs./group;
3-1: 3 different treatments were given for 3 consecutive days respectively before modeling:
A. normal control group: normal saline was injected via the tail vein for once/day;
B. LPS model group: normal saline was injected via the tail vein for once/day;
C. model sp2 administration group: sp2 (16 mg/kgBW) was injected via the tail vein for once/day;
D. model high-dose brap administration group: brap (16 mg/kgBW) was injected via the tail vein for once/day;
E. model medium-dose brap administration group: brap (8 mg/kgBW) was injected via the tail vein for once/day;
F. model low-dose brap administration group: brap (4 mg/kgBW) was injected via the tail vein for once/day;
G. model brap intranasal administration group: brap (3 mM) was administered nasal administration on both sides, 15 μl/each side; once a day;
H. model dexamethasone administration group (a positive control group): dexamethasone, DEX, 5 mg/kg was injected intraperitoneally for once a day.
Animals from groups A-H were continuously administered the above treatments for 30 min respectively, then group A was intraperitoneally injected isopyknic normal saline, and other groups were intraperitoneally injected LPS 5 mg/kgBW.
1. Tissue section and extending
2. Tissues were dewaxed and hydrated.
3. Tissues were dyed with a hematoxylin stain for 5-20 min (adjusted according to different tissues and experimental requirements), and washed by tap water.
4. Then, tissues were differentiated by a differentiation solution for 30 s.
5. Tissues were soaked by tap water for 15 min or warm water (about 50° C.) for 5 min.
6. Tissues were put in an Eosin stain for 2 min (adjusted according to different tissues and experimental requirements), and washed by tap water.
7. Then, the tissues were soaked by tap water for 5 min.
8. Dehydration by gradient alcohol: Tissues were dehydrated by 95%, 100% I, and 100% II for 1 min each;
9. Transparency by xylene: tissues were subjected to xylene I and II for 10 min.
10. Neutral balsam mounting.
11. Then, it was put and dried in an oven at 60° C., and observed under microscope.

Entries after “also recorded” stand apart in the source; their conditions may differ. Ends that are not written are not given here.

Take RVLNGPEAPA [brap]: the “Lung tissue pathology (HE)” value runs as follows: (16 mg/kgBW via tail vein once/day) “No abnormality; also recorded: no thickened pulmonary septum and no obvious inflammatory cell infiltration”; (intranasal 3 mM, 15 μl/each side once a day) “no obvious abnormality”; (medium and low dose, 8 and 4 mg/kgBW via tail vein once/day) “inflammatory cell infiltration begins to appear”.
